Experimental data reported in PMC9268448, “Synthesis of 4,5-Dihydro-1H-[1,2]dithiolo[3,4-c]quinoline-1-thione Derivatives and Their Application as Protein Kinase Inhibitors” (Molecules, 2022).

Assays:
[1] = biological target: T1, NPM1-ALK (Homo sapiens, UniProt Q9UM73); experiment: Kinase inhibition ELISA, NPM1-ALK; type: biochemical; settings: for inhibition at 10 µM: 10 μM test compound, 150 μM ATP; for IC50: ten concentration points
T1 construct: NPM1 (nucleophosmin, P06748) fusion partner
Experimental: (§1) Study of inhibitory activity. […] The enzymatic reaction was stopped with a buffer containing 20 mM HEPES (Sigma, H4034), pH 7.5, and 150 mM EDTA (Sigma, E5513). […] Incubation was carried out for 1 h at room temperature. […] After completion of each incubation step (60 min at room temperature (~20 °C) and continuous stirring), the plates were washed three times from unbound antibody molecules with a PBS solution with Tween-20 and 100 μL of substrate (3.3′,5.5′-tetramethylbenzidine (TMB) dihydrochloride, Sigma, T8768) prepared according to the manufacturer’s instructions. Before measuring the optical density, the reaction was stopped using 0.5 M Н2SO4. The optical density of the solution was determined at λ = 450 nm using a tablet spectrophotometer (TECAN Safire). The data obtained were processed and imported into the HTSCalc program.
(§2) The data were analyzed using GraphPad Prism software (v. 3.1).

[2] = biological target: JAK2 (Homo sapiens, UniProt O60674); experiment: Kinase inhibition ELISA, JAK2; type: biochemical; settings: 10 μM test compound, 150 μM ATP
Chain of JAK2 (O60674 whole entry): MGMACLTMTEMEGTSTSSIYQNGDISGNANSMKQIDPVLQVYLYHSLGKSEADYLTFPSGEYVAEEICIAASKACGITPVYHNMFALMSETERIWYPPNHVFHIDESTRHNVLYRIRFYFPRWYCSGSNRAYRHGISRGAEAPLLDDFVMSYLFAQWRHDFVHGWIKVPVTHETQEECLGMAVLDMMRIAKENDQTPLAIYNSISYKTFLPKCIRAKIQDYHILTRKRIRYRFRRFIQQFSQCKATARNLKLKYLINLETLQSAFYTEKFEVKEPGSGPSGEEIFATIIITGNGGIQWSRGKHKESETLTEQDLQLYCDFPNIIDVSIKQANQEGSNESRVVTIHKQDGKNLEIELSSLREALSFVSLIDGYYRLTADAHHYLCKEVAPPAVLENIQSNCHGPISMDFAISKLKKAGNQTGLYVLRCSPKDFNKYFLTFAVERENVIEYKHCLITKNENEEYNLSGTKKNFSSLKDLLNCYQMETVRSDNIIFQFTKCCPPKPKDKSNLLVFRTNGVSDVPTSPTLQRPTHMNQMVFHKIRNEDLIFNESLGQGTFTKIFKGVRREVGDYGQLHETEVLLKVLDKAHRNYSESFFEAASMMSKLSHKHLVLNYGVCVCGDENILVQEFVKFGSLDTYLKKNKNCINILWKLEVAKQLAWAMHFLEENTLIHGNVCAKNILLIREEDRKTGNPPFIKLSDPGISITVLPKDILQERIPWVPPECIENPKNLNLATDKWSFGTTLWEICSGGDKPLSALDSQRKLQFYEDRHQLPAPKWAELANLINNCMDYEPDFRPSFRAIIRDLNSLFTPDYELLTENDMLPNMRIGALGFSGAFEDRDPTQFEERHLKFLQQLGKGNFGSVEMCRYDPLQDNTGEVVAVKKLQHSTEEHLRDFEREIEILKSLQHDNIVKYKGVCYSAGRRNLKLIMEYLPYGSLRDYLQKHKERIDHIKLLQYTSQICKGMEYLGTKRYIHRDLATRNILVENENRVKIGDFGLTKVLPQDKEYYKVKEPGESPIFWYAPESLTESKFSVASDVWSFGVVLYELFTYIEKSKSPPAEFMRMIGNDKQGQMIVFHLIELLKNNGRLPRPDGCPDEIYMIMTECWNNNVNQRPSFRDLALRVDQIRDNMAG
Experimental: (§3) Study of inhibitory activity. The kinase activity was determined by enzyme-linked immunosorbent assay (ELISA) in polypropylene plates (Costar, 3363) in reaction buffer (20 mM HEPES, pH 7.5, 15 mM MgCl2, 2 mM DTT, 0.2 mM Na3VO4, 0.005% Triton X-100) for 60 min at 30 °C with vigorous stirring. The final concentration of the reaction components: 0.05 μg mL^–1 of the corresponding kinase, 5 nM Histon H3 biotinylated substrate (1–21) (Anaspec, 61702), 150 μM ATP (Sigma, A6419), 10 μM test compound, 5% DMSO. The enzymatic reaction was stopped with a buffer containing 20 mM HEPES (Sigma, H4034), pH 7.5, and 150 mM EDTA (Sigma, E5513). Further, to detect the phosphorylated substrate, the reaction mixture was transferred to pre-prepared plates (Nunc, 468667) coated with neutravidin (1 ng per well; Pierce, 31000) and treated with bovine serum albumin (BSA) to block non-specific binding sites. Incubation was carried out for 1 h at room temperature. After washing the plates three times with phosphate buffer saline (PBS, pH 7.4) with Tween-20, they were incubated sequentially with anti-phospho-Histon H3 antibodies (0.3 ng μL^–1; Millipore, 04-746) and with specific antibodies conjugated with an enzyme-label (peroxidase) Anti-rabbit IgG, HRP-linked Antibody (titer 1/5000; Cell Signaling, 7074). After completion of each incubation step (60 min at room temperature (~20 °C) and continuous stirring), the plates were washed three times from unbound antibody molecules with a PBS solution with Tween-20 and 100 μL of substrate (3.3′,5.5′-tetramethylbenzidine (TMB) dihydrochloride, Sigma, T8768) prepared according to the manufacturer’s instructions. Before measuring the optical density, the reaction was stopped using 0.5 M Н2SO4. The optical density of the solution was determined at λ = 450 nm using a tablet spectrophotometer (TECAN Safire). The data obtained were processed and imported into the HTSCalc program.

[3] = biological target: ALK (Homo sapiens, UniProt Q9UM73); experiment: Kinase inhibition ELISA, ALK; type: biochemical; settings: 10 μM test compound, 150 μM ATP
Chain of ALK (Q9UM73 19-1620): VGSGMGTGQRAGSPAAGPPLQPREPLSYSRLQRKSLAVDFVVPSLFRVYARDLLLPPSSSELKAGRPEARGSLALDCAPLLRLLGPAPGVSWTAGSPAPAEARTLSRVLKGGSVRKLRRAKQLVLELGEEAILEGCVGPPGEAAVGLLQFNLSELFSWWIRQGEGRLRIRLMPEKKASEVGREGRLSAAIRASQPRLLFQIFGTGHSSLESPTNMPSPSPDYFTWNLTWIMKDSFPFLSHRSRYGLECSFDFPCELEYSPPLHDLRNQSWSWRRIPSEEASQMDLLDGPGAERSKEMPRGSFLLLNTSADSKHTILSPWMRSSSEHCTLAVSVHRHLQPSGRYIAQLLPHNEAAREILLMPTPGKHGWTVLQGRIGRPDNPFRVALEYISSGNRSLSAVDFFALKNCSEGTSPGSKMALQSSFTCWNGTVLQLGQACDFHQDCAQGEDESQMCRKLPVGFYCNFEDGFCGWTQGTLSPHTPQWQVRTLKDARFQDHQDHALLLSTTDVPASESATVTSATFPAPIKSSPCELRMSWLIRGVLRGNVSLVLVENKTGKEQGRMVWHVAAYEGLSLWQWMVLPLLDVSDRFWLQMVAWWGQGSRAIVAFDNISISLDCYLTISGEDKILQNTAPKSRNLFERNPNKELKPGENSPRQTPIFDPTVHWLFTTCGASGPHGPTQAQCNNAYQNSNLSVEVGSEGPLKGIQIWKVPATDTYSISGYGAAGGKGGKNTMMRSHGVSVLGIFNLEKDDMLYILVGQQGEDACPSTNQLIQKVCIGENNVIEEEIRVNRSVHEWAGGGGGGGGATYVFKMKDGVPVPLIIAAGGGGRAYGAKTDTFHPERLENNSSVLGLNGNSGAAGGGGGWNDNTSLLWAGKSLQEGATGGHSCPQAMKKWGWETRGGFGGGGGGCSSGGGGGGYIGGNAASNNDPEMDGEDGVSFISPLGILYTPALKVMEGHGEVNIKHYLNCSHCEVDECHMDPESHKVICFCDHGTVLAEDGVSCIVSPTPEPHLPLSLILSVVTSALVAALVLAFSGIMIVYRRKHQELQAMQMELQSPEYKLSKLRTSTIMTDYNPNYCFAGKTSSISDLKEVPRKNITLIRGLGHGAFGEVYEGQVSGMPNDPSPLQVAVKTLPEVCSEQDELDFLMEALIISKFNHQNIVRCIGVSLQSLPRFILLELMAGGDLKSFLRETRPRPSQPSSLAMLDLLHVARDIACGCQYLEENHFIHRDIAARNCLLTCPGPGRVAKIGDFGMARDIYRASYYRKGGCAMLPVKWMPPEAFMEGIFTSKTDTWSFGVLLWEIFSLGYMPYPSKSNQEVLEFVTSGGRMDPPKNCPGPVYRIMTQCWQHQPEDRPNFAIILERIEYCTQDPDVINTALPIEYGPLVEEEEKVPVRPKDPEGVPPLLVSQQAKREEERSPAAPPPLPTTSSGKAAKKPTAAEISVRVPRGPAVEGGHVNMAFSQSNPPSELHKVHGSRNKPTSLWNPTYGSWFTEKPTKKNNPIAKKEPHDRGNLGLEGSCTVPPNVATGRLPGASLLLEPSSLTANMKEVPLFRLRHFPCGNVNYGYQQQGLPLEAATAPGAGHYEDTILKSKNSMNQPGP
Experimental: as §3

[4] = biological target: T2, JAK3 (Homo sapiens, UniProt P52333); experiment: Kinase inhibition ELISA, JAK3; type: biochemical; settings: for inhibition at 10 µM: 10 μM test compound, 150 μM ATP; for IC50: ten concentration points
T2 sequence (P52333 1-1124): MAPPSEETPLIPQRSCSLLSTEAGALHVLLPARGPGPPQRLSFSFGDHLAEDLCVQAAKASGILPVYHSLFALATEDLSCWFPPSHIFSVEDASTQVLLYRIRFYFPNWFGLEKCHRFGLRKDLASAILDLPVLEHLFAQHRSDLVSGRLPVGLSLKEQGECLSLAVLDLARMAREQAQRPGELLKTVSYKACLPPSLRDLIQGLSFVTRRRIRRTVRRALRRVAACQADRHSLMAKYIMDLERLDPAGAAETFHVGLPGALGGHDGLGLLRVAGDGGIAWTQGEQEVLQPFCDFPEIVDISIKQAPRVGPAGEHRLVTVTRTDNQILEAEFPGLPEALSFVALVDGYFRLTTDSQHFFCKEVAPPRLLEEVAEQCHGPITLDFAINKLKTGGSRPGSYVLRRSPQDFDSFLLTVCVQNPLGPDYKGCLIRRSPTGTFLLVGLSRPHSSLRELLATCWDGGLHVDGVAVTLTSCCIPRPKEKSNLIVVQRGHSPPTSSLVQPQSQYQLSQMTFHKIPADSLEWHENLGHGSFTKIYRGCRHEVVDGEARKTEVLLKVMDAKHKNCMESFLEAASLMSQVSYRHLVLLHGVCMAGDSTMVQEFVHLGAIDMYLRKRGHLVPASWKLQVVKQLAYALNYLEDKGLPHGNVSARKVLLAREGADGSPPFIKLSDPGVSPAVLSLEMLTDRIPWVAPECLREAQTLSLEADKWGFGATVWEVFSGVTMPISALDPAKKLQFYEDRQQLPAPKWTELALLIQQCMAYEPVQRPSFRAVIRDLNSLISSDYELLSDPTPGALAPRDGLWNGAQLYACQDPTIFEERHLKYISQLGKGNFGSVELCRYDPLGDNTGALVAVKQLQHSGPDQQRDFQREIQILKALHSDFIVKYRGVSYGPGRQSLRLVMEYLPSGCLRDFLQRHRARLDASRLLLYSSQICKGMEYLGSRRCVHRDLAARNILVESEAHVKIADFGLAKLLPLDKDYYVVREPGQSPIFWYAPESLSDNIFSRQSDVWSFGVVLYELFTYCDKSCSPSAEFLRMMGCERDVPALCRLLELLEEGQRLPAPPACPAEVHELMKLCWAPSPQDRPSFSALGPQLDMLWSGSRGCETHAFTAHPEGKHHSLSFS
Experimental: as §3
(§4) For compounds 2a–c,q, the IC50 value (μmol L^–1) was calculated from ten concentration points (in triplicate dilution) obtained twice. The data were analyzed using GraphPad Prism software (v. 3.1).

[5] = biological target: cRAF[Y340D][Y341D] (Homo sapiens, UniProt P04049, Y340D/Y341D); experiment: Kinase inhibition ELISA, cRAF[Y340D][Y341D]; type: biochemical; settings: for inhibition at 10 µM: 10 μM test compound, 150 μM ATP; for IC50: ten concentration points
Experimental: as §1, §2

[6] = biological target: EGFR[L858R][T790] (Homo sapiens, UniProt P00533, L858R/T790M); experiment: Kinase inhibition ELISA, EGFR[L858R][T790]; type: biochemical; settings: 10 μM test compound, 150 μM ATP
Chain of EGFR[L858R][T790] (P00533 669-1210 T790M/L858R limits assumed): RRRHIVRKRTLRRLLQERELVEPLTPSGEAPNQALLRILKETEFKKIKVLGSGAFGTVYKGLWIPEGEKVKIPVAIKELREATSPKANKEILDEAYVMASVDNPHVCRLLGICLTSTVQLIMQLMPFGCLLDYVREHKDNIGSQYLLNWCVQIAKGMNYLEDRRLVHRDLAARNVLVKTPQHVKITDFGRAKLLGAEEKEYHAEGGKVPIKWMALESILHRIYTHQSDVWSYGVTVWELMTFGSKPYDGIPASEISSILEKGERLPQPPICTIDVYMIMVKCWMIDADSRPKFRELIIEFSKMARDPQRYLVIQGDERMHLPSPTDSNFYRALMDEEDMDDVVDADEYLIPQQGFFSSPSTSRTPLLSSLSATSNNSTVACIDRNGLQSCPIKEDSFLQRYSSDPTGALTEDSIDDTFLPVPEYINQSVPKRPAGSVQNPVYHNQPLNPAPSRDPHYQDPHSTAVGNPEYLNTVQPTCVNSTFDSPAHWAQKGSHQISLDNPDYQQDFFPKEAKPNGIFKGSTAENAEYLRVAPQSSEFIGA
Experimental: as §3

[7] = system: protein kinases NPM1-ALK, ALK, EGFR[L858R][T790], cRAF[Y340D][Y341D], JAK2, and JAK3; experiment: Kinase inhibition ELISA, summary over the studied protein kinases; type: biochemical, human; settings: primary screening, 10 μM test compound
Experimental: Study of inhibitory activity. The kinase activity was determined by enzyme-linked immunosorbent assay (ELISA) in polypropylene plates (Costar, 3363) in reaction buffer (20 mM HEPES, pH 7.5, 15 mM MgCl2, 2 mM DTT, 0.2 mM Na3VO4, 0.005% Triton X-100) for 60 min at 30 °C with vigorous stirring. The final concentration of the reaction components: 0.05 μg mL^–1 of the corresponding kinase, 5 nM Histon H3 biotinylated substrate (1–21) (Anaspec, 61702), 150 μM ATP (Sigma, A6419), 10 μM test compound, 5% DMSO. The enzymatic reaction was stopped with a buffer containing 20 mM HEPES (Sigma, H4034), pH 7.5, and 150 mM EDTA (Sigma, E5513). Further, to detect the phosphorylated substrate, the reaction mixture was transferred to pre-prepared plates (Nunc, 468667) coated with neutravidin (1 ng per well; Pierce, 31000) and treated with bovine serum albumin (BSA) to block non-specific binding sites. Incubation was carried out for 1 h at room temperature. […] The optical density of the solution was determined at λ = 450 nm using a tablet spectrophotometer (TECAN Safire). […]
as §4

T1 sequence (Q9UM73 whole entry, looked up, the tested form may be a part): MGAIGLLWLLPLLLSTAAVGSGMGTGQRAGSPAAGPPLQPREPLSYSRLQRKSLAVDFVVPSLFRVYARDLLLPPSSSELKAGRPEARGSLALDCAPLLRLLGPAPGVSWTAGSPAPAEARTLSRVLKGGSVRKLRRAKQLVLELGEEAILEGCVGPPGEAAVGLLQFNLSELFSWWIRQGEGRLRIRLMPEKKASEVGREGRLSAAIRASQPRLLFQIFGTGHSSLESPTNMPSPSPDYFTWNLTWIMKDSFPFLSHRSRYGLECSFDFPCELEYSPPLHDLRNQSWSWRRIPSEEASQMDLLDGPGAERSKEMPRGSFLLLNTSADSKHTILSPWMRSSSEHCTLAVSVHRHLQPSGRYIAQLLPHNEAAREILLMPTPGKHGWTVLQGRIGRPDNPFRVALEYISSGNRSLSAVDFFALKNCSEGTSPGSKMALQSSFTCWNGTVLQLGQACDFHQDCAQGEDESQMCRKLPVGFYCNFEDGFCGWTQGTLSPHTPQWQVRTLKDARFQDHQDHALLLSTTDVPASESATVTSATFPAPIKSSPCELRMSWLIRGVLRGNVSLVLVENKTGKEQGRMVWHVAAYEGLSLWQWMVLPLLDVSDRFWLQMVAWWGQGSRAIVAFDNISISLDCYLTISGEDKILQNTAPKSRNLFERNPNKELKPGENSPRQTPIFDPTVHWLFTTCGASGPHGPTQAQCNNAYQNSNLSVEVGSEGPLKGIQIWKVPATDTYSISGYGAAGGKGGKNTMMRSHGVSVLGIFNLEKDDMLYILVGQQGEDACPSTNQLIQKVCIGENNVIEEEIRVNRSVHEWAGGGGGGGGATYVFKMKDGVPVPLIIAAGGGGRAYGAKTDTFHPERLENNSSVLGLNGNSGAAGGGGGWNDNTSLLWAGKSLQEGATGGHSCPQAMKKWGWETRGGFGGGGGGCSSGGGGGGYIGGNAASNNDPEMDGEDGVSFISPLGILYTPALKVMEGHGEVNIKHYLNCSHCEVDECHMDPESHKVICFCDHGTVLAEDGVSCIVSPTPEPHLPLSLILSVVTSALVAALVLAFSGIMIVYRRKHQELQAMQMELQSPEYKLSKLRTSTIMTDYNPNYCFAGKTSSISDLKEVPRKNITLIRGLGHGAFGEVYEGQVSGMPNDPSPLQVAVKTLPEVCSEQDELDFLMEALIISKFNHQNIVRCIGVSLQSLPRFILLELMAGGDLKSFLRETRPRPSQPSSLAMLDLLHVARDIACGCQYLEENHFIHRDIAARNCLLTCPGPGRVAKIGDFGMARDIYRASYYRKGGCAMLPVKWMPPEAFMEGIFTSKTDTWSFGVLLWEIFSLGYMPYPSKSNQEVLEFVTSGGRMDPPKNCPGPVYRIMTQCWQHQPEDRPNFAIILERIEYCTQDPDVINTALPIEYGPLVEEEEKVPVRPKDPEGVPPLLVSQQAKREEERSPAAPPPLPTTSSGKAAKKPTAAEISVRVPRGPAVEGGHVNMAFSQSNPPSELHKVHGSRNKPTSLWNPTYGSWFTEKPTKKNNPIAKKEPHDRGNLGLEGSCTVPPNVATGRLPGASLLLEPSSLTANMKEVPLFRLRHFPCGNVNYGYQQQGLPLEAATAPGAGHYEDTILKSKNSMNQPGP

## CC1(C)c2ssc(=S)c2-c2cc(C(=S)N3CCOCC3)ccc2N1Cc1ccccc1 [2c, 5-Benzyl-4,4-dimethyl-8-(morpholin-4-ylcarbonothioyl)-4,5-dihydro-1H-[1,2]dithiolo[3,4-c]quinoline-1-thione]
[1]
  inhibition at 10 µM: 75%
[2]
  inhibition at 10 µM: 76%
[3]
  inhibition at 10 µM: 77%
[4]
  inhibition at 10 µM: 95%
  IC50: 410 nM
[5]
  inhibition at 10 µM: 93%
  IC50: 0.78 µM
[6]
  inhibition at 10 µM: 88%

## CN1c2ccc(C(=S)N3CCN(c4ccccc4)CC3)cc2-c2c(ssc2=S)C1(C)C [2b, 4,4,5-Trimethyl-8-[(4-phenylpiperazin-1-yl)carbonothioyl]-4,5-dihydro-1H-[1,2]dithiolo[3,4-c]quinoline-1-thione]
[1]
  inhibition at 10 µM: 90%
  IC50: 250 nM
[2]
  inhibition at 10 µM: 83%
[3]
  inhibition at 10 µM: 86%
[4]
  inhibition at 10 µM: 95%
  IC50: 380 nM
[5]
  inhibition at 10 µM: 92%
[6]
  inhibition at 10 µM: 84%

## CC1(C)c2ssc(=S)c2-c2cc(C(=S)N3CCCCC3)ccc2N1Cc1ccccc1 [2d, 5-Benzyl-4,4-dimethyl-8-(piperidin-1-ylcarbonothioyl)-4,5-dihydro-1H-[1,2]dithiolo[3,4-c]quinoline-1-thione]
[1]
  inhibition at 10 µM: 41%
[2]
  inhibition at 10 µM: 33%
[3]
  inhibition at 10 µM: 39%
[4]
  inhibition at 10 µM: 69%
[5]
  inhibition at 10 µM: 61%
[6]
  inhibition at 10 µM: 12%

## CC1(C)c2ssc(=S)c2-c2cc3c(cc2N1C(=O)c1ccccc1F)OCCO3 [2m, 5-(2-Fluorobenzoyl)-4,4-dimethyl-4,5,8,9-tetrahydro-1H-[1,4]dioxino[2,3-g][1,2]dithiolo[3,4-c]quinoline-1-thione]
[1]
  inhibition at 10 µM: 6%
[2]
  inhibition at 10 µM: 1%
[3]
  inhibition at 10 µM: -4%
[4]
  inhibition at 10 µM: 23%
other
  melting point: 234 to 235 °C
[7]
  inhibitory activity against the studied protein kinases (in words): very low activity
[5]
  inhibition at 10 µM: 35%
[6]
  inhibition at 10 µM: 10%

## COc1ccc2c(c1)-c1c(ssc1=S)C(C)(C)N2C(=O)CN1C(=O)C2CCCCC2C1=O (stereo not shown) [2k, 2-[2-(8-Methoxy-4,4-dimethyl-1-thioxo-1,4-dihydro-5H-[1,2]dithiolo[3,4-c]quinolin-5-yl)-2-oxoethyl]hexahydro-1H-isoindole-1,3(2H)-dione]
[1]
  inhibition at 10 µM: 27%
[2]
  inhibition at 10 µM: 3%
[3]
  inhibition at 10 µM: 18%
[4]
  inhibition at 10 µM: 26%
other
  melting point: 205 to 206 °C
[7]
  inhibitory activity against the studied protein kinases (in words): very low activity
[5]
  inhibition at 10 µM: 41%
[6]
  inhibition at 10 µM: -2%

## CC1(C)Nc2cc3c(cc2-c2c1ssc2=S)OCCO3 [2h, 4,4-dimethyl-4,5,8,9-tetrahydro-1H-[1,4]dioxino[2,3-g][1,2]dithiolo[3,4-c]quinoline-1-thione]
[1]
  inhibition at 10 µM: 42%
[2]
  inhibition at 10 µM: 10%
[3]
  inhibition at 10 µM: 49%
[4]
  inhibition at 10 µM: 36%
other
  melting point: 238 to 239 °C
[5]
  inhibition at 10 µM: 44%
[6]
  inhibition at 10 µM: 27%

## COc1ccc2c(c1)-c1c(ssc1=S)C(C)(C)N2C(=O)CN1C(=O)CCC1=O [2j, 1-[2-(8-Methoxy-4,4-dimethyl-1-thioxo-1,4-dihydro-5H-[1,2]dithiolo[3,4-c]quinolin-5-yl)-2-oxoethyl]pyrrolidine-2,5-dione]
[1]
  inhibition at 10 µM: 56%
[2]
  inhibition at 10 µM: 11%
[3]
  inhibition at 10 µM: 7%
[4]
  inhibition at 10 µM: 39%
other
  melting point: 201 to 202 °C
[5]
  inhibition at 10 µM: 5%
[6]
  inhibition at 10 µM: 9%

## COc1ccc2c(c1)-c1c(ssc1=S)C(C)(C)N2C(=O)c1cccs1 [2i, 8-Methoxy-4,4-dimethyl-5-(2-thienylcarbonyl)-4,5-dihydro-1H-[1,2]dithiolo[3,4-c]quinoline-1-thione]
[1]
  inhibition at 10 µM: 77%
[2]
  inhibition at 10 µM: 64%
[3]
  inhibition at 10 µM: 81%
[4]
  inhibition at 10 µM: 89%
other
  melting point: 158 to 159 °C
[5]
  inhibition at 10 µM: 76%
[6]
  inhibition at 10 µM: 24%

## CN1c2ccc(C(=S)N3CCOCC3)cc2-c2c(ssc2=S)C1(C)C [2a, 4,4,5-Trimethyl-8-(morpholin-4-ylcarbonothioyl)-4,5-dihydro-1H-[1,2]dithiolo[3,4-c]quinoline-1-thione]
[1]
  inhibition at 10 µM: 87%
  IC50: 540 nM
[2]
  inhibition at 10 µM: 81%
[3]
  inhibition at 10 µM: 84%
[4]
  inhibition at 10 µM: 96%
  IC50: 360 nM
other
  melting point: 106 to 107 °C
[5]
  inhibition at 10 µM: 93%
  IC50: 6.57 µM
[6]
  inhibition at 10 µM: 82%

## COc1cccc(N=c2ssc3c2-c2cccc4c2N(C(=O)C4=O)C3(C)C)c1 [2q, 10-[(3-Methoxyphenyl)imino]-7,7-dimethyl-7,10-dihydro[1,2]dithiolo[3,4-c]pyrrolo[3,2,1-ij]quinoline-4,5-dione]
[1]
  inhibition at 10 µM: 36%
[2]
  inhibition at 10 µM: 9%
[3]
  inhibition at 10 µM: 51%
[4]
  inhibition at 10 µM: 99%
  IC50: 460 nM
other
  melting point: 195 to 196 °C
[5]
  inhibition at 10 µM: 92%
  IC50: 5.34 µM
[6]
  inhibition at 10 µM: 71%

## COc1ccc2c(c1)N(C(=O)c1sc3ccccc3c1Cl)C(C)(C)c1ssc(=S)c1-2 [2l, 5-[(3-Chloro-1-benzothien-2-yl)carbonyl]-7-methoxy-4,4-dimethyl-4,5-dihydro-1H-[1,2]dithiolo[3,4-c]quinoline-1-thione]
[1]
  inhibition at 10 µM: 67%
[2]
  inhibition at 10 µM: 53%
[3]
  inhibition at 10 µM: 75%
[4]
  inhibition at 10 µM: 86%
other
  melting point: 218 to 219 °C
[5]
  inhibition at 10 µM: 81%
[6]
  inhibition at 10 µM: 24%
